# Laboratory results from patent US11274083B2, “Substituted thiophenyl uracils, salts thereof and the use thereof as herbicidal agents” (Syngenta Crop Protection AG, priority 2017, dated 2022).
# What was measured:
# Assay type in all cases: in vivo
# [1] = system: Abutilon theophrasti; experiment: Herbicidal action post-emergence, greenhouse pot test
# Summary of the method: (§1)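 Weeds in sandy loam pots sprayed at one-leaf stage (2–3 weeks after sowing) with WP or EC formulations in water plus 0.5% additive, 600 L/ha, at 80 g/ha or lower. After about 3 weeks in greenhouse, efficacy scored visually versus untreated controls (100% = dead, 0% = like control).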
# [2] = system: Alopecurus myosuroides; experiment: as above; conditions: application rate 20 g/ha, scored visually after about 3 weeks vs untreated controls
# Summary of the method: as §1
# [3] = system: Amaranthus retroflexus; experiment: as above
# Summary of the method: as §1
# [4] = system: Echinochloa crus-galli; experiment: as above
# Summary of the method: as §1
# [5] = system: Matricaria inodora; experiment: as above
# Summary of the method: as §1
# [6] = system: Pharbitis purpurea; experiment: as above
# Summary of the method: as §1
# [7] = system: Polygonum convolvulus; experiment: as above
# Summary of the method: as §1
# [8] = system: Setaria viridis; experiment: as above
# Summary of the method: as §1
# [9] = system: Stellaria media; experiment: as above
# Summary of the method: as §1
# [10] = system: Veronica persica; experiment: as above
# Summary of the method: as §1
# [11] = system: Viola tricolor; experiment: as above
# Summary of the method: as §1
# [12] = system: Triticum aestivum; experiment: Crop compatibility post-emergence, greenhouse pot test
# Summary of the method: (§2)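 Sandy loam pots, greenhouse; one-leaf stage, 2–3 wk post-sowing; WP or EC, aq. spray on green parts, 0.5% additive, 600 L/ha; ~3 wk; visual score % vs untreated (0 = control-like, 100 = dead).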
# [13] = system: Abutilon theophrasti; experiment: Herbicidal action pre-emergence, greenhouse pot test
# Summary of the method: (§3)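 Seeds sown in pots and covered with soil; WP or EC formulations sprayed onto the soil surface as aqueous suspension/emulsion with 0.5% additive at 600 L/ha water, at 320 g/ha or lower. Plants kept in greenhouse; efficacy scored visually after about 3 weeks as % versus untreated controls (100% = dead).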
# [14] = system: Amaranthus retroflexus; experiment: as above; conditions: application rate 80 g/ha
# Summary of the method: as §3
# [15] = system: Echinochloa crus-galli; experiment: as above
# Summary of the method: as §3
# [16] = system: Pharbitis purpurea; experiment: as above
# Summary of the method: as §3
# [17] = system: Polygonum convolvulus; experiment: as above
# Summary of the method: as §3
# [18] = system: Setaria viridis; experiment: as above
# Summary of the method: as §3
# [19] = system: Stellaria media; experiment: as above
# Summary of the method: as §3
# [20] = system: Veronica persica; experiment: as above
# Summary of the method: as §3
# [21] = system: Viola tricolor; experiment: as above
# Summary of the method: as §3
# [22] = system: Matricaria inodora; experiment: as above
# [23] = system: Digitaria sanguinalis; experiment: Herbicidal action post-emergence, greenhouse pot test; conditions: application rate 20 g/ha
# [24] = system: Digitaria sanguinalis; experiment: Herbicidal action pre-emergence, greenhouse pot test; conditions: application rate 80 g/ha
# Description: Seeds of mono- and dicotyledonous weeds and crop plants were laid out in plastic or organic plant pots and covered with soil. The compounds of the invention formulated in the form of wettable powders (WP) or as emulsion concentrates (EC) were then applied to the surface of the covering soil as an aqueous suspension or emulsion with addition of 0.5% additive at a water application rate equivalent to 600 L/ha. After the treatment, the pots were placed in a greenhouse and kept under good growth conditions for the test plants. After about 3 weeks, the efficacy of the preparations was scored visually as a percentage by comparison with untreated controls. For example, 100% efficacy=plants have died. 0% efficacy=like control plants.
# [25] = system: Lolium rigidum; experiment: Herbicidal action post-emergence, greenhouse pot test; conditions: application rate 80 g/ha
# Summary of the method: as §1
# [26] = system: Glycine max; experiment: Crop compatibility post-emergence, greenhouse pot test; conditions: application rate 5 g/ha
# Summary of the method: as §2
# [27] = system: Oryza sativa; experiment: as above; conditions: application rate 5 g/ha
# Summary of the method: as §2
# [28] = system: Alopecurus myosuroides; experiment: Herbicidal action pre-emergence, greenhouse pot test; conditions: application rate 320 g/ha
# Summary of the method: as §3
# [29] = system: Avena fatua; experiment: as above; conditions: application rate 320 g/ha
# Summary of the method: as §3
# [30] = system: Cyperus esculentus; experiment: as above; conditions: application rate 320 g/ha
# Summary of the method: as §3
# [31] = system: Hordeum murinum; experiment: as above; conditions: application rate 320 g/ha
# Summary of the method: as §3
# [32] = system: Lolium rigidum; experiment: as above; conditions: application rate 320 g/ha
# Summary of the method: as §3
smiles,measurement,setting,value
CC(Sc1cc(-n2c(=O)cc(C(F)(F)F)n(C)c2=O)c(F)cc1Cl)C(=O)OC1C(=O)OCC1(C)C (centres unmarked) [I.1-142],Abutilon theophrasti (Efficacy in %),[1]; application rate 20 g/ha,100%
same,Alopecurus myosuroides (Efficacy in %),[2],80%
same,Amaranthus retroflexus (Efficacy in %),[3]; application rate 20 g/ha,100%
same,Echinochloa crus-galli (Efficacy in %),[4]; application rate 20 g/ha,100%
same,Matricaria inodora (Efficacy in %),[5]; application rate 20 g/ha,100%
same,Pharbitis purpurea (Efficacy in %),[6]; application rate 20 g/ha,100%
same,Polygonum convolvulus (Efficacy in %),[7]; application rate 20 g/ha,100%
same,Setaria viridis (Efficacy in %),[8]; application rate 20 g/ha,100%
same,Stellaria media (Efficacy in %),[9]; application rate 20 g/ha,100%
same,Veronica persica (Efficacy in %),[10]; application rate 20 g/ha,100%
same,Viola tricolor (Efficacy in %),[11]; application rate 20 g/ha,100%
same,Triticum aestivum (Efficacy in %),[12]; application rate 20 g/ha,20%
same,Abutilon theophrasti (Efficacy in %),[13]; application rate 80 g/ha,100%
same,Amaranthus retroflexus (Efficacy in %),[14],100%
same,Echinochloa crus-galli (Efficacy in %),[15]; application rate 80 g/ha,90%
same,Pharbitis purpurea (Efficacy in %),[16]; application rate 80 g/ha,90%
same,Polygonum convolvulus (Efficacy in %),[17]; application rate 80 g/ha,100%
same,Setaria viridis (Efficacy in %),[18]; application rate 80 g/ha,100%
same,Stellaria media (Efficacy in %),[19]; application rate 80 g/ha,100%
same,Veronica persica (Efficacy in %),[20]; application rate 80 g/ha,100%
same,Viola tricolor (Efficacy in %),[21]; application rate 80 g/ha,100%
same,Matricaria inodora (Efficacy in %),[22]; application rate 80 g/ha,100%
same,Digitaria sanguinalis (Efficacy in %),[23],100%
same,Digitaria sanguinalis (Efficacy in %),[24],100%
CC(Sc1cc(-n2c(=O)cc(C(F)(F)F)n(C)c2=O)c(F)cc1Cl)C(=O)OCC(=O)N(C)C (centres unmarked) [I.1-241],Abutilon theophrasti (Efficacy in %),[1]; application rate 80 g/ha,100%
same,Amaranthus retroflexus (Efficacy in %),[3]; application rate 80 g/ha,100%
same,Echinochloa crus-galli (Efficacy in %),[4]; application rate 80 g/ha,100%
same,Lolium rigidum (Efficacy in %),[25],90%
same,Matricaria inodora (Efficacy in %),[5]; application rate 80 g/ha,100%
same,Pharbitis purpurea (Efficacy in %),[6]; application rate 80 g/ha,100%
same,Polygonum convolvulus (Efficacy in %),[7]; application rate 80 g/ha,100%
same,Setaria viridis (Efficacy in %),[8]; application rate 80 g/ha,100%
same,Stellaria media (Efficacy in %),[9]; application rate 80 g/ha,100%
same,Veronica persica (Efficacy in %),[10]; application rate 80 g/ha,100%
same,Viola tricolor (Efficacy in %),[11]; application rate 80 g/ha,100%
same,Glycine max (Efficacy in %),[26],10%
same,Oryza sativa (Efficacy in %),[27],10%
same,Triticum aestivum (Efficacy in %),[12]; application rate 5 g/ha,10%
same,Abutilon theophrasti (Efficacy in %),[13]; application rate 320 g/ha,100%
same,Alopecurus myosuroides (Efficacy in %),[28],100%
same,Amaranthus retroflexus (Efficacy in %),[14],100%
same,Avena fatua (Efficacy in %),[29],100%
same,Cyperus esculentus (Efficacy in %),[30],100%
same,Echinochloa crus-galli (Efficacy in %),[15]; application rate 320 g/ha,100%
same,Hordeum murinum (Efficacy in %),[31],100%
same,Lolium rigidum (Efficacy in %),[32],100%
same,Pharbitis purpurea (Efficacy in %),[16]; application rate 320 g/ha,100%
same,Polygonum convolvulus (Efficacy in %),[17]; application rate 320 g/ha,100%
same,Setaria viridis (Efficacy in %),[18]; application rate 320 g/ha,100%
same,Stellaria media (Efficacy in %),[19]; application rate 320 g/ha,100%
same,Veronica persica (Efficacy in %),[20]; application rate 320 g/ha,100%
same,Viola tricolor (Efficacy in %),[21]; application rate 320 g/ha,100%
same,Matricaria inodora (Efficacy in %),[22]; application rate 320 g/ha,100%
